Legend:
Type in all cases: in vivo
Ctenocephalides felis [1] = experiment: Ctenocephalides felis oral test; conditions: application rate 100 ppm in citrated cattle blood; after 2 days
Protocol: Ctenocephalides felis—Oral Test
(§1) Solvent: dimethyl sulphoxide
For the purpose of producing an appropriate active ingredient formulation, 10 mg of active ingredient are mixed with 0.5 ml of dimethyl sulphoxide. Dilution with citrated cattle blood gives the desired concentration.
About 20 unfed adult cat fleas (Ctenocephalides felis) are placed into a chamber which is closed at the top and bottom with gauze. A metal cylinder whose bottom end is closed with parafilm is placed onto the chamber. The cylinder contains the blood/active ingredient preparation, which can be imbibed by the fleas through the parafilm membrane.
After 2 days, the kill in % is determined. 100% means that all of the fleas have been killed; 0% means that none of the fleas have been killed.

Spodoptera frugiperda = Spodoptera frugiperda spray test; conditions: caterpillars, after 7 days
Protocol: Spodoptera frugiperda—Spray Test
(§2) To produce an appropriate active ingredient formulation, 1 part by weight of active ingredient is dissolved using the specified parts by weight of solvent and made up with water containing an emulsifier concentration of 1000 ppm until the desired concentration is attained. To produce further test concentrations, the preparation is diluted with emulsifier-containing water.
Leaf discs of maize (Zea mays) are sprayed with an active ingredient formulation of the desired concentration and, after drying, populated with caterpillars of the armyworm (Spodoptera frugiperda).
After 7 days, efficacy in % is determined. 100% means that all the caterpillars have been killed; 0% means that no caterpillars have been killed.

Boophilus microplus = Boophilus microplus injection test; conditions: application rate 20 μg/animal; injection into abdomen; assessed after 7 days
Protocol: Boophilus microplus—Injection Test
as §1
To produce an appropriate active ingredient formulation, 10 mg of active ingredient are mixed with 0.5 ml of solvent and the concentrate is diluted with solvent to the desired concentration.
1 μl of the active ingredient solution is injected into the abdomen of 5 engorged adult female cattle ticks (Boophilus microplus). The animals are transferred into dishes and kept in a climate-controlled room.
Efficacy is assessed after 7 days by laying of fertile eggs. Eggs which are not visibly fertile are stored in a climate-controlled cabinet until the larvae hatch after about 42 days. An efficacy of 100% means that none of the ticks has laid any fertile eggs; 0% means that all the eggs are fertile.

Lucilia cuprina = Lucilia cuprina test; conditions: application rate 100 ppm; L1 larvae; after 2 days
Protocol: as §1
To produce an appropriate active ingredient formulation, 10 mg of active ingredient are mixed with 0.5 ml of dimethyl sulphoxide, and the concentrate is diluted with water to the desired concentration.
About 20 L1 larvae of the Australian sheep blowfly (Lucilia cuprina) are transferred into a test vessel containing minced horsemeat and the active ingredient preparation of the desired concentration.
After 2 days, the kill in % is determined. 100% means that all the larvae have been killed and 0% means that none of the larvae have been killed.

Tetranychus urticae = Tetranychus urticae spray test, OP-resistant; conditions: application rate 100 g/ha; after 6 days
Protocol: Tetranychus urticae—Spray Test, OP-Resistant
as §2
Discs of bean leaves (Phaseolus vulgaris) infested by all stages of the greenhouse red spider mite (Tetranychus urticae) are sprayed with an active ingredient formulation of the desired concentration.
After 6 days, efficacy in % is determined. 100% means that all the spider mites have been killed; 0% means that none of the spider mites have been killed.

Phaedon cochleariae = Phaedon cochleariae spray test; conditions: larvae, after 7 days
Protocol: Phaedon cochleariae—Spray Test
as §2
Discs of Chinese cabbage leaves (Brassica pekinensis) are sprayed with an active ingredient formulation of the desired concentration and, after drying, populated with larvae of the mustard beetle (Phaedon cochleariae).
After 7 days, efficacy in % is determined. 100% means that all the beetle larvae have been killed; 0% means that no beetle larvae have been killed.

Rhipicephalus sanguineus = Rhipicephalus sanguineus in vitro contact test with adult brown dog ticks; conditions: after 48 h, ticks dead or moribund
Protocol: Rhipicephalus sanguineus—In Vitro Contact Tests with Adult Brown Dog Ticks
(§3) For the coating of the test tubes, 9 mg of active ingredient are first dissolved in 1 ml of acetone p.a. and then diluted to the desired concentration with acetone p.a. 250 μl of the solution are distributed homogeneously on the inner walls and base of a 25 ml test tube by turning and rocking on an orbital shaker (rocking rotation at 30 rpm for 2 h). With 900 ppm active ingredient solution and internal surface 44.7 cm^2, given homogeneous distribution, an area-based dose of 5 μg/cm^2 is achieved.
After the solvent has evaporated off, the tubes are populated with 5-10 adult dog ticks (Rhipicephalus sanguineus), sealed with a perforated plastic lid and incubated in a horizontal position in the dark at room temperature and ambient humidity. After 48 h, efficacy is determined. To this end, the ticks are knocked to the floor of the tube and incubated on a hotplate at 45-50° C. for not more than 5 min. Ticks which remain motionless on the floor or move in such an uncoordinated manner that they are unable to deliberately avoid the heat by climbing upwards are considered to be dead or moribund.
An efficacy of 100% means that all the ticks were dead or moribund. 0% efficacy means that none of the ticks had been harmed.

Ctenocephalides felis [2] = experiment: Ctenocephalides felis in vitro contact test with adult cat fleas; conditions: application rate 5 μg/cm^2 (500 g/ha); after 48 h; fleas dead or moribund
Protocol: Ctenocephalides felis—In Vitro Contact Tests with Adult Cat Fleas
as §3
After the solvent has evaporated off, the tubes are populated with 5-10 adult cat fleas (Ctenocephalides felis), sealed with a perforated plastic lid and incubated in a horizontal position at room temperature and ambient humidity. After 48 h, efficacy is determined. To this end, the test tubes are stood upright and the fleas are knocked to the base of the tube. Fleas which remain motionless at the base or move in an uncoordinated manner are considered to be dead or moribund.
100% efficacy means that all the fleas were dead or moribund. 0% efficacy means that no fleas were harmed.

[3] = application rate 5 μg/cm^2 (500 g/ha)

Row | SMILES | efficacy (kill in %) (Ctenocephalides felis [1]) [%] | efficacy (Spodoptera frugiperda; application rate 100 g/ha) [%] | efficacy (laying of fertile eggs) (Boophilus microplus) [%] | efficacy (kill in %) (Lucilia cuprina) [%] | efficacy (Tetranychus urticae) [%] | efficacy (Phaedon cochleariae; application rate 100 g/ha) [%] | efficacy (Rhipicephalus sanguineus; [3]) [%] | efficacy (Spodoptera frugiperda; application rate 500 g/ha) [%] | efficacy (Phaedon cochleariae; application rate 500 g/ha) [%] | efficacy (Ctenocephalides felis [2]) [%] | efficacy (Rhipicephalus sanguineus; application rate 1 μg/cm^2 (100 g/ha)) [%]
1 | CCC(C)C(=O)Nc1cc(-c2cnn(-c3c(C(F)(F)F)c(C(F)(F)C(F)(F)F)nn3C)c2)ccc1F (racemic) [Example 1-052] | 90 | 100 | 100 | 100 | 100 |  |  |  |  |  | 
2 | Cn1nc(C(F)(F)C(F)(F)F)c(C(F)(F)F)c1-n1cc(-c2cccc(NC(=O)c3cc(Cl)nc(Cl)c3)c2)cn1 [Example 1-011] | 100 |  | 100 | 100 | 90 | 100 | 80 |  |  |  | 
3 | Cn1nc(C(F)(F)C(F)(F)F)c(C(F)(F)F)c1-n1cc(-c2cccc(NC(=O)c3c(F)cccc3F)c2)cn1 [Example 1-015] | 100 | 100 | 100 | 100 | 100 | 100 | 80 |  |  |  | 
4 | Cn1nc(C(F)(F)C(F)(F)F)c(C(F)(F)F)c1-n1cc(-c2cccc(NC(=O)c3sccc3Cl)c2)cn1 [Example 1-018] |  |  | 100 |  | 90 |  |  | 100 | 100 |  | 
5 | Cn1nc(C(F)(F)C(F)(F)F)c(C(F)(F)F)c1-n1cc(-c2ccc(Cl)c(NC(=O)c3ccccc3)c2)cn1 [Example 1-023] | 100 | 100 | 100 | 100 | 100 | 100 | 100 |  |  | 100 | 
6 | Cn1nc(C(F)(F)C(F)(F)F)c(C(F)(F)F)c1-n1cc(-c2cccc(NC(=O)C3(C#N)CC3)c2)cn1 [Example 1-029] | 100 |  | 100 | 100 | 100 |  | 100 | 100 | 83 |  | 
7 | Cn1nc(C(F)(F)C(F)(F)F)c(C(F)(F)F)c1-n1cc(-c2ccc(F)c(NC(=O)c3ccc(F)cc3)c2F)cn1 [Example 1-039] |  | 100 |  |  | 100 | 100 |  |  |  | 80 | 
8 | Cc1cc(C(=O)Nc2cc(-c3cnn(-c4c(C(F)(F)F)c(C(F)(F)C(F)(F)F)nn4C)c3)ccc2F)cc(Cl)n1 [Example 1-043] | 100 | 100 | 100 | 100 | 100 | 100 |  |  |  |  | 80
9 | Cn1nc(C(F)(F)C(F)(F)F)c(C(F)(F)F)c1-n1cc(-c2ccc(F)c(NC(=O)C(C)(C)CF)c2)cn1 [Example 1-046] |  |  | 100 | 100 | 100 |  |  |  |  |  | 
10 | CN(C)c1ccc(C(=O)Nc2cc(-c3cnn(-c4c(C(F)(F)F)c(C(F)(F)C(F)(F)F)nn4C)c3)ccc2F)cc1 [Example 1-054] |  | 100 | 100 | 100 | 100 | 100 | 100 |  |  |  | 
11 | CC(C)C(C)(C)C(=O)Nc1cc(-c2cnn(-c3c(C(F)(F)F)c(C(F)(F)C(F)(F)F)nn3C)c2)ccc1F [Example 1-065] | 90 |  | 100 | 80 | 100 |  |  |  |  |  | 
12 | C[C@@H](F)C(=O)Nc1cc(-c2cnn(-c3c(C(F)(F)F)c(C(F)(F)C(F)(F)F)nn3C)c2)ccc1F [Example 1-066] | 100 |  | 100 | 80 |  |  | 100 |  |  | 100 | 
13 | Cc1occc1C(=O)Nc1cc(-c2cnn(-c3c(C(F)(F)F)c(C(F)(F)C(F)(F)F)nn3C)c2)ccc1F [Example 1-067] | 100 | 100 | 100 | 100 | 100 | 100 |  |  |  |  | 
14 | Cc1ccc(C(=O)Nc2cc(-c3cnn(-c4c(C(F)(F)F)c(C(F)(F)C(F)(F)F)nn4C)c3)ccc2F)s1 [Example 1-069] | 100 | 100 | 100 | 100 | 90 | 100 | 100 |  |  | 100 | 
15 | Cn1nc(C(F)(F)C(F)(F)F)c(C(F)(F)F)c1-n1cc(-c2ccc(F)c(NC(=O)C(C)(C)C)c2)cn1 [Example 1-078] | 80 | 100 | 100 | 100 | 100 |  | 100 |  |  |  | 
16 | Cc1ccc2c(Cl)c(C(=O)Nc3cc(-c4cnn(-c5c(C(F)(F)F)c(C(F)(F)C(F)(F)F)nn5C)c4)ccc3F)sc2c1 [Example 1-083] |  |  | 80 |  |  |  |  |  |  | 80 | 
17 | Cc1ccc(C(=O)Nc2cc(-c3cnn(-c4c(C(F)(F)F)c(C(F)(F)C(F)(F)F)nn4C)c3)ccc2F)cc1F [Example 1-092] | 100 | 100 | 100 | 100 | 100 | 100 | 100 |  |  |  | 
18 | Cn1nc(C(F)(F)C(F)(F)F)c(C(F)(F)F)c1-n1cc(-c2ccc(F)c(NC(=O)c3ccc4c(c3)OCO4)c2)cn1 [Example 1-093] | 100 | 100 | 100 | 100 | 100 | 100 | 100 |  |  |  | 
19 | Cn1nc(C(F)(F)C(F)(F)F)c(C(F)(F)F)c1-n1cc(-c2ccc(F)c(NC(=O)Cc3cccc(F)c3)c2)cn1 [Example 1-121] | 100 | 100 | 100 | 100 | 100 | 100 | 100 |  |  |  | 
